Measurements: ChEMBL document CHEMBL4765227, “Hit to lead optimization of a series of N-[4-(1,3-benzothiazol-2-yl)phenyl]acetamides as monoacylglycerol lipase inhibitors with potential anticancer activity” (Eur J Med Chem, 2016)

What was measured:
Type in all cases: functional
Details in all cases: read-out: GI
[1] = system: UO-31; assay: Growth inhibition of human UO-31 cells at 10 uM incubated for 48 hrs by sulforhodamine B assay relative to control
[2] = system: PC-3; assay: Growth inhibition of human PC-3 cells at 10 uM incubated for 48 hrs by sulforhodamine B assay relative to control
[3] = system: SK-OV-3; assay: Growth inhibition of human SK-OV-3 cells at 10 uM incubated for 48 hrs by sulforhodamine B assay relative to control
[4] = system: MDA-MB-231; assay: Growth inhibition of human MDA-MB-231 cells at 10 uM incubated for 48 hrs by sulforhodamine B assay relative to control
[5] = system: HCT-15; assay: Growth inhibition of human HCT-15 cells at 10 uM incubated for 48 hrs by sulforhodamine B assay relative to control
[6] = system: HT-29; assay: Growth inhibition of human HT-29 cells at 10 uM incubated for 48 hrs by sulforhodamine B assay relative to control
[7] = system: OVCAR-5; assay: Growth inhibition of human OVCAR-5 cells at 10 uM incubated for 48 hrs by sulforhodamine B assay relative to control
[8] = system: SR; assay: Growth inhibition of human SR cells at 10 uM incubated for 48 hrs by sulforhodamine B assay relative to control
[9] = system: SW-620; assay: Growth inhibition of human SW-620 cells at 10 uM incubated for 48 hrs by sulforhodamine B assay relative to control
[10] = system: ACHN; assay: Growth inhibition of human ACHN cells at 10 uM incubated for 48 hrs by sulforhodamine B assay relative to control
[11] = system: OVCAR-4; assay: Growth inhibition of human OVCAR-4 cells at 10 uM incubated for 48 hrs by sulforhodamine B assay relative to control
[12] = system: LOX IMVI; assay: Growth inhibition of human LOX IMVI cells at 10 uM incubated for 48 hrs by sulforhodamine B assay relative to control
[13] = system: HL-60(TB); assay: Growth inhibition of human HL-60(TB) cells at 10 uM incubated for 48 hrs by sulforhodamine B assay relative to control
[14] = system: T47D; assay: Growth inhibition of human T47D cells at 10 uM incubated for 48 hrs by sulforhodamine B assay relative to control
[15] = system: DU-145; assay: Growth inhibition of human DU-145 cells at 10 uM incubated for 48 hrs by sulforhodamine B assay relative to control
[16] = system: SN12C; assay: Growth inhibition of human SN12C cells at 10 uM incubated for 48 hrs by sulforhodamine B assay relative to control
[17] = system: TK-10; assay: Growth inhibition of human TK-10 cells at 10 uM incubated for 48 hrs by sulforhodamine B assay relative to control
[18] = system: M14; assay: Growth inhibition of human M14 cells at 10 uM incubated for 48 hrs by sulforhodamine B assay relative to control
[19] = system: RPMI-8226; assay: Growth inhibition of human RPMI-8226 cells at 10 uM incubated for 48 hrs by sulforhodamine B assay relative to control
[20] = system: HCT-116; assay: Growth inhibition of human HCT-116 cells at 10 uM incubated for 48 hrs by sulforhodamine B assay relative to control
[21] = system: SF-539; assay: Growth inhibition of human SF-539 cells at 10 uM incubated for 48 hrs by sulforhodamine B assay relative to control
[22] = system: UACC-257; assay: Growth inhibition of human UACC-257 cells at 10 uM incubated for 48 hrs by sulforhodamine B assay relative to control
[23] = system: RXF 393; assay: Growth inhibition of human RXF 393 cells at 10 uM incubated for 48 hrs by sulforhodamine B assay relative to control
[24] = system: NCI-H460; assay: Growth inhibition of human NCI-H460 cells at 10 uM incubated for 48 hrs by sulforhodamine B assay relative to control
[25] = system: UACC-62; assay: Growth inhibition of human UACC-62 cells at 10 uM incubated for 48 hrs by sulforhodamine B assay relative to control
[26] = system: SF-268; assay: Growth inhibition of human SF-268 cells at 10 uM incubated for 48 hrs by sulforhodamine B assay relative to control
[27] = system: HCC 2998; assay: Growth inhibition of human HCC 2998 cells at 10 uM incubated for 48 hrs by sulforhodamine B assay relative to control
[28] = system: MDA-MB-435; assay: Growth inhibition of human MDA-MB-435 cells at 10 uM incubated for 48 hrs by sulforhodamine B assay relative to control
[29] = system: COLO 205; assay: Growth inhibition of human COLO 205 cells at 10 uM incubated for 48 hrs by sulforhodamine B assay relative to control
[30] = system: SF-295; assay: Growth inhibition of human SF-295 cells at 10 uM incubated for 48 hrs by sulforhodamine B assay relative to control
[31] = system: OVCAR-8; assay: Growth inhibition of human OVCAR-8 cells at 10 uM incubated for 48 hrs by sulforhodamine B assay relative to control
[32] = system: Hs-578T; assay: Growth inhibition of human Hs-578T cells at 10 uM incubated for 48 hrs by sulforhodamine B assay relative to control
[33] = system: A549; assay: Growth inhibition of human A549/ATCC cells at 10 uM incubated for 48 hrs by sulforhodamine B assay relative to control
[34] = system: NCI-H23; assay: Growth inhibition of human NCI-H23 cells at 10 uM incubated for 48 hrs by sulforhodamine B assay relative to control
[35] = system: SNB-19; assay: Growth inhibition of human SNB-19 cells at 10 uM incubated for 48 hrs by sulforhodamine B assay relative to control
[36] = system: NCI-H226; assay: Growth inhibition of human NCI-H226 cells at 10 uM incubated for 48 hrs by sulforhodamine B assay relative to control
[37] = system: NCI-H522; assay: Growth inhibition of human NCI-H522 cells at 10 uM incubated for 48 hrs by sulforhodamine B assay relative to control
[38] = system: CCRF-CEM; assay: Growth inhibition of human CCRF-CEM cells at 10 uM incubated for 48 hrs by sulforhodamine B assay relative to control
[39] = system: MDA-MB-468; assay: Growth inhibition of human MDA-MB-468 cells at 10 uM incubated for 48 hrs by sulforhodamine B assay relative to control
[40] = system: U-251; assay: Growth inhibition of human U-251 cells at 10 uM incubated for 48 hrs by sulforhodamine B assay relative to control
[41] = system: NCI-H322M; assay: Growth inhibition of human NCI-H322M cells at 10 uM incubated for 48 hrs by sulforhodamine B assay relative to control
[42] = system: SK-MEL-5; assay: Growth inhibition of human SK-MEL-5 cells at 10 uM incubated for 48 hrs by sulforhodamine B assay relative to control
[43] = system: HOP-92; assay: Growth inhibition of human HOP-92 cells at 10 uM incubated for 48 hrs by sulforhodamine B assay relative to control
[44] = system: KM12; assay: Growth inhibition of human KM12 cells at 10 uM incubated for 48 hrs by sulforhodamine B assay relative to control

SMILES: O=C(CN(c1ccccc1)c1ccccc1)Nc1ccc(-c2nc3ccccc3s2)cc1
- inhibition of growth at 10 µM [1]: 3.62%
- inhibition of growth at 10 µM [2]: 2.35%
- inhibition of growth at 10 µM [3]: -11.4%
- inhibition of growth at 10 µM [4]: -3.01%
- inhibition of growth at 10 µM [5]: -8.11%
- inhibition of growth at 10 µM [6]: -5.89%
- inhibition of growth at 10 µM [7]: -6.47%
- inhibition of growth at 10 µM [8]: 2.68%
- inhibition of growth at 10 µM [9]: -3.33%
- inhibition of growth at 10 µM [10]: -13.4%
- inhibition of growth at 10 µM [11]: -13.3%
- inhibition of growth at 10 µM [12]: 6.1%
- inhibition of growth at 10 µM [13]: -1.45%
- inhibition of growth at 10 µM [14]: 13.6%
- inhibition of growth at 10 µM [15]: -5.31%
- inhibition of growth at 10 µM [16]: -3.04%
- inhibition of growth at 10 µM [17]: -2.02%
- inhibition of growth at 10 µM [18]: -10.1%
- inhibition of growth at 10 µM [19]: -15.6%
- inhibition of growth at 10 µM [20]: -5.38%
- inhibition of growth at 10 µM [21]: 4.21%
- inhibition of growth at 10 µM [22]: -8.16%
- inhibition of growth at 10 µM [23]: -5.12%
- inhibition of growth at 10 µM [24]: -0.29%
- inhibition of growth at 10 µM [25]: 2.85%
- inhibition of growth at 10 µM [26]: -3.74%
- inhibition of growth at 10 µM [27]: -1.62%
- inhibition of growth at 10 µM [28]: -4.11%
- inhibition of growth at 10 µM [29]: -3.6%
- inhibition of growth at 10 µM [30]: -3.15%
- inhibition of growth at 10 µM [31]: -0.82%
- inhibition of growth at 10 µM [32]: 14.3%
- inhibition of growth at 10 µM [33]: -5.7%
- inhibition of growth at 10 µM [34]: 3.7%
- inhibition of growth at 10 µM [35]: -7.16%
- inhibition of growth at 10 µM [36]: -5.48%
- inhibition of growth at 10 µM [37]: 2.41%
- inhibition of growth at 10 µM [38]: -6.75%
- inhibition of growth at 10 µM [39]: 61.3%
- inhibition of growth at 10 µM [40]: -5.92%
- inhibition of growth at 10 µM [41]: -4.73%
- inhibition of growth at 10 µM [42]: 7.11%
- inhibition of growth at 10 µM [43]: 11.2%
- inhibition of growth at 10 µM [44]: -6.94%
